# Patent US9233983B2, “Substituted hetero-bicyclic compounds, compositions and medicinal applications thereof” (ADVINUS THERAPEUTICS LIMITED, priority 2012, dated 2016)
# Target: human Bruton's Tyrosine Kinase (Btk) (Homo sapiens (Human), UniProt Q06187)
# Assay: Recombinant Human Bruton's Tyrosine Kinase (Btk) Inhibition Assay (HTRF KinEASE-TK)
# Format: biochemical
# Details: 20 ng/ml rhBtk, 77 μM ATP (KM), 1 μM TK-Biotin substrate, 90 min; read-out: hBTK IC50
# human Bruton's Tyrosine Kinase (Btk), sequence (Q06187 whole entry): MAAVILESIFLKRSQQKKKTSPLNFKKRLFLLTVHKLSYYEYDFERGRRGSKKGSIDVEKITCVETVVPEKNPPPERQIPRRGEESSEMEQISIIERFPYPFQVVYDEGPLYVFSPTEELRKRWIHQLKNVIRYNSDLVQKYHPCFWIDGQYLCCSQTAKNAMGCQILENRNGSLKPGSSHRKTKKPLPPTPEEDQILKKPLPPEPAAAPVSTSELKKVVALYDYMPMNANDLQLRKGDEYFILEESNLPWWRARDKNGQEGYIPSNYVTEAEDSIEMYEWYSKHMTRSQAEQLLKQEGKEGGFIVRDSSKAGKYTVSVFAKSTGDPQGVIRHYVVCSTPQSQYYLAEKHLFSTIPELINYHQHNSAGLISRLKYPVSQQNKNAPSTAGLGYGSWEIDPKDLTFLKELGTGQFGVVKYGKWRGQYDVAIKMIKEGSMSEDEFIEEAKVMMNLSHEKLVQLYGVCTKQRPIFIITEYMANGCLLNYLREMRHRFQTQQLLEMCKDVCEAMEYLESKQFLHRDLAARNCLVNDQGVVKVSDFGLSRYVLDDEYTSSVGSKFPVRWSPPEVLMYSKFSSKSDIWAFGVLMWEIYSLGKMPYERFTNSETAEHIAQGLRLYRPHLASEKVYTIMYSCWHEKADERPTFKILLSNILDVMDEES
row,IC50 [nM],Structure (SMILES)
1,1,"O=C(N1CC=C(c2cc3c(-c4cccc(N5CCOc6cc(C7CC7)cc(F)c6C5=O)c4CO)ccnc3[nH]2)CC1)N1CCC1 [Example P-13, 4-[3-[2-[1-(azetidine-1-carbonyl)-3,6-dihydro-2H-pyridin-4-yl]-1H-pyrrolo[2,3-b]pyridin-4-yl]-2-(hydroxymethyl)phenyl]-8-cyclopropyl-6-fluoro-2,3-dihydro-1,4-benzoxazepin-5-one]"
2,10,"CS(=O)(=O)N1CC=C(c2cc3c(-c4cccc(N5CCOc6cc(C7CC7)cc(F)c6C5=O)c4CO)ccnc3[nH]2)CC1 [Example P-11, 8-cyclopropyl-6-fluoro-4-[2-(hydroxymethyl)-3-[2-(1-methylsulfonyl-3,6-dihydro-2H-pyridin-4-yl)-1H-pyrrolo[2,3-b]pyridin-4-yl]phenyl]-2,3-dihydro-1,4-benzoxazepin-5-one]"
3,130,"Cc1c(-c2ncnc3[nH]c(-c4ccc(C(=O)N5CCOCC5)cc4)cc23)cccc1N1CCc2cc(C3CC3)ccc2C1=O [Example K-15, 6-cyclopropyl-2-[2-methyl-3-[6-[4-(morpholine-4-carbonyl)phenyl]-7H-pyrrolo[2,3-d]pyrimidin-4-yl]phenyl]-3,4-dihydroisoquinolin-1-one]"
4,137,"Cc1c(-c2ncnc3[nH]c(-c4ccc(C(=O)N5CCCC5)cc4)cc23)cccc1N1CCOc2cc(C3CC3)ccc2C1=O [Example K-9, 8-cyclopropyl-4-[2-methyl-3-[6-[4-(pyrrolidine-1-carbonyl)phenyl]-7H-pyrrolo[2,3-d]pyrimidin-4-yl]phenyl]-2,3-dihydro-1,4-benzoxazepin-5-one]"
5,46,"O=C(O)c1ccc(-c2cc3c(-c4cccc(N5CCOc6cc(C7CC7)ccc6C5=O)c4CO)ccnc3[nH]2)nc1 [Example P-7, 6-[4-[3-(8-cyclopropyl-5-oxo-2,3-dihydro-1,4-benzoxazepin-4-yl)-2-(hydroxymethyl)phenyl]-1H-pyrrolo[2,3-b]pyridin-2-yl]pyridine-3-carboxylic acid]"

# More lines, now with the values behind:
row,Structure (SMILES),IC50 [nM]
1,"Cc1c(-c2ncnc3[nH]c(-c4ccc(CN5CCN(C)CC5)cc4)cc23)cccc1N1CCc2cc(C3CC3)ccc2C1=O [Example B-3, 6-cyclopropyl-2-[2-methyl-3-[6-[4-[(4-methylpiperazin-1-yl)methyl]phenyl]-7H-pyrrolo[2,3-d]pyrimidin-4-yl]phenyl]-3,4-dihydroisoquinolin-1-one]",30
2,"Cc1c(-c2ncnc3[nH]c(-c4ccc(C(=O)N5CCN(C)CC5)cc4)cc23)cccc1N1CCc2cc(C3CC3)ccc2C1=O [Example K-21, 6-cyclopropyl-2-[2-methyl-3-[6-[4-(4-methylpiperazine-1-carbonyl)phenyl]-7H-pyrrolo[2,3-d]pyrimidin-4-yl]phenyl]-3,4-dihydroisoquinolin-1-one]",> 1000
3,"CN(C)C(=O)N1CCN(Cc2ccc(-c3cc4c(-c5cccc(N6CCOc7cc(C8CC8)ccc7C6=O)c5CO)ccnc4[nH]3)nc2)CC1 [Example I-11, 4-[[6-[4-[3-(8-cyclopropyl-5-oxo-2,3-dihydro-1,4-benzoxazepin-4-yl)-2-(hydroxymethyl)phenyl]-1H-pyrrolo[2,3-b]pyridin-2-yl]-3-pyridyl]methyl]-N,N-dimethyl-piperazine-1-carboxamide]",> 1000
4,"Cc1c(-c2ncnc3[nH]c(-c4ccccc4)cc23)cccc1N1CCOc2cc(C3CC3)ccc2C1=O [Example M-1, 8-cyclopropyl-4-[2-methyl-3-(6-phenyl-7H-pyrrolo[2,3-d]pyrimidin-4-yl)phenyl]-2,3-dihydro-1,4-benzoxazepin-5-one]",> 1000
5,"Cc1c(-c2ncnc3[nH]c(C4=CCN(CCCO)CC4)cc23)cccc1N1CCOc2cc(C3CC3)ccc2C1=O [Example P-1, 8-cyclopropyl-4-[3-[6-[1-(3-hydroxypropyl)-3,6-dihydro-2H-pyridin-4-yl]-7H-pyrrolo[2,3-d]pyrimidin-4-yl]-2-methyl-phenyl]-2,3-dihydro-1,4-benzoxazepin-5-one]",272
